Structures are written as SMILES.

The text below walks through data of patent US11420935B2, “Bicyclic compounds” (Vivace Therapeutics, Inc., priority 2019, dated 2022).

The test system of the assay is 8×TBD luciferase reporter (YAP) in HEK293T cells. In words: YAP Reporter Assay (8×TBD firefly luciferase reporter). In kind it is cell-based. The settings on record: Homo sapiens, HEK-293T; HEK293T cells stably transfected with 8×TBD luciferase reporter and pRLTK; 24-hr incubation; firefly luciferase activity; read-out: Firefly Luciferase IC50. The procedure:
HEK293T cells stably transfected with 8×TBD luciferase reporter and pRLTK in 384-well plates were treated with the test compounds, starting from 3 μM (final concentration in assay plate), 1:3 dilution, and 10 points in quadruplicates. Post 24-hr incubation with compounds at 37° C. and 5% CO2, cells were lysed and 8×TBD-driven firefly luciferase and control TK-driven renilla luciferase activities were measured using Promega Dual-Luciferase Reporter Assay System.
Reagents: The reagents used for this study are: DMEM: Invitrogen #11960077, Dual-Glo Luciferase Assay System: Promega-E2980, Puromycin Dihydrochloride: Invitrogen-A1113803, 384-well plate: PerkinElmer-6007480, L-GLUTAMINE: Invitrogen-25030164, Hygromycin B: Invitrogen-10687010, and Penicillin-Streptomycin: Merk-TMS-AB2-C
Media: The media used for this assay were: Culture Medium: DMEM+1 ug/mL puromycin+200 ug/mL hygromycin (with 10% FBS+1 mM L-glutamine); and Assay Medium: DMEM (with 10% FBS+1 mM L-glutamine+1×P/S).
Cell Plating: The appropriate media was warmed at 37° C. by water bath: Culture Medium, Assay Medium, 1*D-PBS, 0.05% trypsin-EDTA. The cells were trypsinized after removing all media, then washed with 1*sterile D-PBS and then with 2 ml 0.05% trypsin-EDTA. The cells were then incubated at RT for one minute. Then 10 ml/75 cm2 flask Assay Medium was added to each flask. Using a 10 ml pipette, the cells were then gently resuspended in the media, until the clumps completely disappeared. The cells were then transferred into 50 ml centrifuge tubes and were centrifuged at 800 rpm for 5 mins. The medium was removed and the cells were resuspended with Assay Medium. An aliquot of cells was used to count the cell density (cells/ml). The cell suspension was then diluted with Assay Medium to a concentration of 6×10^4 cells/ml. 50 ul cells suspension was then plated to 384-well plate (PerkinElmer-6007480), 3×10^3 cells/well and the cells were incubated in an incubator at 37° C., 5% CO2.
Compound Treatment: In the afternoon (incubation of the plate with 3-4 hrs), the test compounds were added by Echo, starting from 3 uM (final concentration in the assay plate), 1:3 dilution, 10 points, quadruplicates. The plate was placed at 37° C., 5% CO2 incubator for 24 hrs.
Detection: The Dual-Glo Luciferase Reagent was prepared by transferring the contents of one bottle of Dual-Glo Luciferase Buffer to one bottle of Dual-Glo Luciferase Substrate to create the Dual-Glo Luciferase Reagent. Mixing was performed by inversion until the substrate was thoroughly dissolved. After mixing, the reagent was aliquoted into 15 ml tubes. In the afternoon (24 hrs post compound treatment), the DMEM+medium in the 384 well plates were aspirated by Microplate Washer.
Measuring firefly luciferase activity: 20 ul Dual-Glo Luciferase Reagent was added to the 384-well plates. The plates were protected from light to prevent interference with the assay. The plates were shaken for 1 min followed centrifuging plates at 1000 rpm for 30 seconds. After waiting at least 10 minutes, the firefly luminescence was measured by Envision.
Measuring renilla luciferase activity: 20 ul Stop-Glo Reagent was added to the 384-well plates. The plates were shaken for 1 min and then centrifuged at 1000 rpm for 30 seconds. After waiting at least 10 minutes, the renilla luminescence was measured by Envision.
Compound IC50 and maximum inhibition on the firefly luciferase and renilla luciferase activities were reported separately.
(In general: In a reporter assay the amount or activity of a reporter protein is the signal.)
`C[C@H](NC(=O)c1ccc2c(Oc3ccc(C(F)(F)F)cc3)cccc2c1)c1ncc[nH]1` [Compound 63, (S)—N-(1-(1H-imidazol-2-yl)ethyl)-5-(4-(trifluoromethyl)phenoxy)-2-naphthamide]: the IC50 was 100 to 1000 nM.
With `C[C@@H](NC(=O)c1ccc2c(Oc3ccc(C(F)(F)F)cc3)cccc2c1)c1ncc[nH]1` [Compound 64, (R)—N-(1-(1H-imidazol-2-yl)ethyl)-5-(4-(trifluoromethyl)phenoxy)-2-naphthamide], the IC50 is under 100 nM.
Under `C[C@H](NC(=O)c1ccc2c(Oc3ccc(C(F)(F)F)cc3)cccc2c1)c1cccc(N)n1` [Compound 65, (S)—N-(1-(6-aminopyridin-2-yl)ethyl)-5-(4-(trifluoromethyl)phenoxy)-2-naphthamide] stands 100 to 1000 nM; under `C[C@@H](NC(=O)c1ccc2c(Oc3ccc(C(F)(F)F)cc3)cccc2c1)c1cccc(N)n1` [Compound 66, (R)—N-(1-(6-aminopyridin-2-yl)ethyl)-5-(4-(trifluoromethyl)phenoxy)-2-naphthamide], under 100 nM.
Under `CC(C)NC(=O)c1ccc2c(Oc3ccc(C(F)(F)F)cc3)ccnc2c1` [Compound 67, N-isopropyl-4-(4-(trifluoromethyl)phenoxy)quinoline-7-carboxamide] stands 100 to 1000 nM; under `C[C@@H](NC(=O)c1ccc2c(Oc3ccc(C(F)(F)F)cc3)cccc2c1)c1nccn1C` [Compound 68, (R)—N-(1-(1-methyl-1H-imidazol-2-yl)ethyl)-5-(4-(trifluoromethyl)phenoxy)-2-naphthamide], 100 to 1000 nM.
With `C[C@H](NC(=O)c1ccc2c(Oc3ccc(C(F)(F)F)cc3)cccc2c1)c1nccn1C` [Compound 69, (S)—N-(1-(1-methyl-1H-imidazol-2-yl)ethyl)-5-(4-(trifluoromethyl)phenoxy)-2-naphthamide] the figure was 100 to 1000 nM; with `CC(C)NC(=O)c1ccc2c(Oc3ccc(C(F)(F)F)cc3)cccc2n1` [Compound 70, N-Isopropyl-5-(4-(trifluoromethyl)phenoxy)quinoline-2-carboxamide], under 100 nM.
As for `C[C@H](NC(=O)c1ccc2c(Oc3ccc(C(F)(F)F)cc3)cccc2c1)c1cc(N)ccn1` [Compound 71, (S)—N-(1-(4-aminopyridin-2-yl)ethyl)-5-(4-(trifluoromethyl)phenoxy)-2-naphthamide], the IC50 lay within 100 to 1000 nM.
Under `C[C@@H](NC(=O)c1ccc2c(Oc3ccc(C(F)(F)F)cc3)cccc2c1)c1cc(N)ccn1` [Compound 72, (R)—N-(1-(4-aminopyridin-2-yl)ethyl)-5-(4-(trifluoromethyl)phenoxy)-2-naphthamide] stands under 100 nM; under `C[C@H](NC(=O)c1ccc2c(Oc3ccc(C(F)(F)F)cc3)cccc2c1)c1cc(N(C)C)ccn1` [Compound 73, (S)—N-(1-(4-(dimethylamino)pyridin-2-yl)ethyl)-5-(4-(trifluoromethyl)phenoxy)-2-naphthamide], 100 to 1000 nM; under `C[C@@H](NC(=O)c1ccc2c(Oc3ccc(C(F)(F)F)cc3)cccc2c1)c1cc(N(C)C)ccn1` [Compound 74, (R)—N-(1-(4-(dimethylamino)pyridin-2-yl)ethyl)-5-(4-(trifluoromethyl)phenoxy)-2-naphthamide], 1000 to 3000 nM.
In the case of `CC(NC(=O)c1ccc2c(Oc3ccc(C(F)(F)F)cc3)cccc2c1)c1cc(Br)ccn1` (centres unmarked) [Compound 75, N-(1-(4-bromopyridin-2-yl)ethyl)-5-(4-(trifluoromethyl)phenoxy)-2-naphthamide], the 50% inhibitory concentration (IC50) was under 100 nM.
Consider `C[C@H](NC(=O)c1ccc2c(Oc3ccc(C(F)(F)F)cc3)cccc2c1)c1cccc(N(C)C)n1` [Compound 76, (S)—N-(1-(6-(dimethylamino)pyridin-2-yl)ethyl)-5-(4-(trifluoromethyl)phenoxy)-2-naphthamide], for which the IC50 was in the range of 100 to 1000 nM.

As a reminder, the IC50 is the midpoint of a concentration-inhibition curve.
